From ChEMBL document CHEMBL5523691, “SAR study of N'-(Salicylidene)heteroarenecarbohydrazides as promising antifungal agents” (Bioorg Med Chem, 2024)
In brackets after ≈: the same amount, converted by molar mass. Activity calls are given as the source filed them. No cut-off for these calls is given here.

How the values were obtained:
[1] = system: Cryptococcus neoformans; test: Antifungal activity against wild type Cryptococcus neoformans H99 assessed as inhibition of fungal growth incubated for 24 to 72 hrs by optical density based analysis; format: functional; conditions: time 24-72 hrs
[2] = Cytotoxicity against human A549 cells assessed as cell killing measured after 24 to 48 hrs by MTT assay; format: toxicity, cell-based; conditions: time 24-48 hrs, read-out: LD50 (the source's name)
[3] = Selectivity index, ratio of LD50 for human A549 cells to MIC80 for Cryptococcus neoformans H99; format: toxicity; conditions: read-out: Selectivity Index
[4] = system: Cryptococcus neoformans; test: Fungicidal activity against wild type Cryptococcus neoformans H99 assessed as minimum concentration required to kill fungus measured after 48 hrs by time-kill assay; format: functional
[5] = system: Cryptococcus neoformans; test: Fungistatic activity against wild type Cryptococcus neoformans H99 assessed as inhibition of fungal growth incubated for 12 to 48 hrs by time-kill assay; format: functional, organism-based; conditions: time 12-48 hrs
[6] = system: Cryptococcus neoformans; test: Fungicidal activity against wild type Cryptococcus neoformans H99 assessed as minimum concentration required to kill fungus measured after 12 hrs by time-kill assay; format: functional
[7] = system: Candida albicans; test: Antifungal activity against Candida albicans assessed as inhibition of fungal growth incubated for 24 to 72 hrs by optical density based analysis; format: functional; conditions: time 24-72 hrs
[8] = system: Cryptococcus neoformans; test: Fungicidal activity against wild type Cryptococcus neoformans H99 assessed as minimum concentration required to kill fungus measured after 24 hrs by time-kill assay; format: functional
[9] = system: Aspergillus fumigatus; test: Antifungal activity against Aspergillus fumigatus assessed as inhibition of fungal growth incubated for 24 to 72 hrs by optical density based analysis; format: functional; conditions: time 24-72 hrs

Row | SMILES | MIC80 [1] [µg/mL] | other results
1 | O=C(N/N=C/c1c(O)ccc2ccccc12)c1cncc(Br)c1 | 0.25 (≈ 0.675 µM) | CC50 [2]: 2 µg/mL (≈ 5.4 µM); selectivity ratio [3]: 8; MFC100 [4]: 2 µg/mL (≈ 5.4 µM)
2 | O=C(N/N=C/c1cc(Br)cc(Br)c1O)c1cc(Br)co1 | 0.06 (≈ 0.129 µM) | CC50 [2]: 16 µg/mL (≈ 34.3 µM); Activity [5]: Active; selectivity ratio [3]: 267
3 | O=C(N/N=C/c1cc(Br)cc(Br)c1O)c1cc(Br)c(Br)s1 | 1 (≈ 1.78 µM) | CC50 [2]: > 32 µg/mL; selectivity ratio [3]: > 32; MFC100 [6]: 1 µg/mL (≈ 1.78 µM)
4 | CC[C@H](C)C[C@H](C)CCCCCCCCC(=O)N[C@H]1C[C@@H](O)[C@@H](NCCN)NC(=O)[C@@H]2[C@@H](O)CCN2C(=O)[C@H]([C@H](O)CCN)NC(=O)[C@H]([C@H](O)[C@@H](O)c2ccc(O)cc2)NC(=O)[C@@H]2C[C@@H](O)CN2C(=O)[C@H]([C@@H](C)O)NC1=O [CASPOFUNGIN] | > 32 | MIC80 [7]: 0.5 µg/mL (≈ 0.457 µM)
5 | O=C(N/N=C/c1ccc(Br)cc1O)c1cncc(Br)c1 | 1 (≈ 2.51 µM) | CC50 [2]: > 32 µg/mL; Activity [5]: Active; selectivity ratio [3]: 64
6 | O=C(N/N=C/c1cc(Br)cc(Br)c1O)c1ccc(C(F)(F)F)o1 | 2 (≈ 4.39 µM) | –
7 | O=C(N/N=C/c1ccc(Br)cc1O)c1csc(Br)c1 | 0.25 (≈ 0.619 µM) | CC50 [2]: > 32 µg/mL; MFC100 [8]: 0.5 µg/mL (≈ 1.24 µM); selectivity ratio [3]: > 128
8 | C[C@@H](c1ncncc1F)[C@](O)(Cn1cncn1)c1ccc(F)cc1F [VORICONAZOLE] | – | MIC80 [9]: 0.125 µg/mL (≈ 0.358 µM)
9 | O=C(N/N=C/c1c(O)ccc2ccccc12)c1csc(Br)c1 | 0.25 (≈ 0.666 µM) | CC50 [2]: > 32 µg/mL; selectivity ratio [3]: > 128; MFC100 [4]: 0.25 µg/mL (≈ 0.666 µM)
10 | O=C(N/N=C/c1c(O)ccc2ccccc12)c1ccc(C(F)(F)F)s1 | 0.007 (≈ 0.0192 µM) | CC50 [2]: 0.12 µg/mL (≈ 0.329 µM); MFC100 [8]: 0.25 µg/mL (≈ 0.686 µM); selectivity ratio [3]: 17.1
11 | O=C(N/N=C/c1c(O)ccc2ccccc12)c1ccc(C(F)(F)F)o1 | 0.5 (≈ 1.44 µM) | CC50 [2]: 0.12 µg/mL (≈ 0.345 µM); selectivity ratio [3]: 0.24; MFC100 [4]: 2 µg/mL (≈ 5.74 µM)
12 | Cc1ccc2c(C)c(C(=O)N/N=C/c3cc(Br)cc(Br)c3O)oc2c1 | > 16 | –
13 | C[C@@H]1[C@H](O)[C@@H](C)/C=C/C=C/C=C/C=C/C=C/C=C/C=C/[C@H](O[C@@H]2O[C@H](C)[C@@H](O)[C@H](N)[C@@H]2O)C[C@@H]2O[C@](O)(C[C@@H](O)C[C@@H](O)[C@H](O)CC[C@@H](O)C[C@@H](O)CC(=O)O[C@H]1C)C[C@H](O)[C@H]2C(=O)O [AMPHOTERICIN B] | 0.5 (≈ 0.541 µM) | MIC80 [9]: 1 µg/mL (≈ 1.08 µM)
14 | O=C(N/N=C/c1c(O)ccc2ccccc12)c1cc[nH]c1 | > 16 | –
15 | O=C(N/N=C/c1cc(Br)ccc1O)c1cc(Br)co1 | 0.25 (≈ 0.644 µM) | CC50 [2]: 16 µg/mL (≈ 41.2 µM); Activity [5]: Active; selectivity ratio [3]: 64

Further lines, with some results ahead:

Row | MIC80 [1] [µg/mL] | SMILES | other results
16 | 2 (≈ 6.47 µM) | O=C(N/N=C/c1ccc(Br)cc1O)c1ccco1 | –
17 | > 16 | O=C(N/N=C/c1cc(Br)ccc1O)c1cc(Br)c[nH]1 | –
18 | 2 (≈ 5.17 µM) | O=C(N/N=C/c1cc(Br)cc(Br)c1O)c1ccc[nH]1 | –
19 | > 16 | O=C(N/N=C/c1cc(Br)ccc1O)c1cc2cc(Br)ccc2o1 | –
20 | > 16 | O=C(N/N=C/c1cc(Br)cc(Br)c1O)c1cc2ccccc2cn1 | –
21 | 8 (≈ 24.6 µM) | O=C(N/N=C/c1cc(Br)ccc1O)c1cccs1 | –
22 | > 16 | O=C(N/N=C/c1cc(Br)cc(Br)c1O)c1cncc(Br)c1 | –
23 | 4 (≈ 13 µM) | O=C(N/N=C/c1cc(Br)ccc1O)c1cc[nH]c1 | –
24 | 4 (≈ 12.9 µM) | O=C(N/N=C/c1cc(Br)ccc1O)c1cc[nH]n1 | –
25 | > 16 | O=C(N/N=C/c1cc(Br)ccc1O)c1nc2cc(Br)ccc2[nH]1 | –
26 | 4 (≈ 8.59 µM) | O=C(N/N=C/c1cc(Br)cc(Br)c1O)c1cc(Br)c[nH]1 | –
27 | 4 (≈ 13 µM) | O=C(N/N=C/c1ccc(Br)cc1O)c1cc[nH]c1 | –
28 | > 16 | O=C(N/N=C/c1cc(Br)cc(Br)c1O)c1csc2ccccc12 | –
29 | 2 (≈ 5.17 µM) | O=C(N/N=C/c1cc(Br)cc(Br)c1O)c1cc[nH]c1 | –
30 | > 16 | Cc1ccc2c(C)c(C(=O)N/N=C/c3cc(Br)ccc3O)oc2c1 | –
31 | > 16 | O=C(N/N=C/c1cc(Br)ccc1O)c1cc2ccccc2cn1 | –
32 | 4 (≈ 9.9 µM) | O=C(N/N=C/c1cc(Br)cc(Br)c1O)c1cccs1 | –
33 | 8 (≈ 20.6 µM) | O=C(N/N=C/c1cc(Br)cc(Br)c1O)c1ccco1 | –
34 | 2 (≈ 6.47 µM) | O=C(N/N=C/c1ccc(Br)cc1O)c1cc[nH]n1 | –
